Where a name gives a salt, the structure may show the parent alone.
Columns and labels:
human NTPDase1 = target: T1, human NTPDase1 (Homo sapiens, UniProt P49961); assay: Malachite green assay, human NTPDase1; type: biochemical; conditions: 2 μM compound; 50 µM ATP; COS-7 membrane preparation; read-out: % inhibition at 2 μM concentration, NTPDase1
T1 construct: expressed in transfected cells; host or cells: COS-7 cells (membrane preparation)
T1 sequence (P49961 1-510): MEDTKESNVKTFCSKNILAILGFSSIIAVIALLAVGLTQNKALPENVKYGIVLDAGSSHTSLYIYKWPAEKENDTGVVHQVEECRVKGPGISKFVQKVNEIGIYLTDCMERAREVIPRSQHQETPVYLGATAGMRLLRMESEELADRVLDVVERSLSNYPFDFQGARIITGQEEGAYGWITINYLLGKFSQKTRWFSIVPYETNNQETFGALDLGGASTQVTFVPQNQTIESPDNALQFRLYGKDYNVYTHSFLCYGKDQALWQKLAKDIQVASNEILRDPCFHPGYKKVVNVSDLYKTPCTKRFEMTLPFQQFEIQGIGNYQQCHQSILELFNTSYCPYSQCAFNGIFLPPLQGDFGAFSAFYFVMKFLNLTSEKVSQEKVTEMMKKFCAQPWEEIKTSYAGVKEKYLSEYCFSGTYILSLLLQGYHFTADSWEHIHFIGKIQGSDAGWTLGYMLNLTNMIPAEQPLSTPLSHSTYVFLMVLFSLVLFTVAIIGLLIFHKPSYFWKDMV
Protocol: (§1) Membrane preparations expressing human NTPDase1, -2, -3, or -8, respectively, were obtained as previously described ([Sévigny et al., 1997]; [Cogan et al., 1999]; [Kukulski et al., 2005]; [Lecka et al., 2013]; [Lee et al., 2018]). Enzyme inhibition assays were performed using the malachite green assay in analogy to published procedures with some modifications ([Dou et al., 2018]). The reaction buffer contained 10 mM HEPES, 2 mM CaCl2, and 1 mM MgCl2 (pH 7.4) in a final volume of 50 μL in transparent 96-well half-area plates. The compounds were initially tested at a final concentration of 2 µM using a COS-7-cell membrane preparation expressing the appropriate NTPDase isoenzyme (protein amount: 143 ng for NTPDase1, 175 ng for NTPDase2, 152 ng for NTPDase3, and 175 ng for NTPDase8). Preincubated of the enzyme preparations was perfomred at 37°C in the presence or absence of test compounds with gentle shaking (Eppendorf Thermomixer comfort at 500 rpm) for 5 min. […] ([Kukulski et al., 2005]). After 15 min of incubation at 37°C with gentle shaking, the reaction was stopped by the addition of the detection reagents (20 µL malachite green solution, 0.6 mM, and 30 µL of ammonium molybdate solution, 20 mM, in 1.5 M sulfuric acid). The released inorganic phosphate was quantified after 20 min of gentle shaking at 25°C by measuring the absorption of the malachite green-phosphomolybdate complex at 600 nm using a BMG PheraStar FS plate reader (BMG Labtech GmbH, Ortenberg, Germany). The corrected absorption was calculated by subtracting the absorption of the negative control samples, which were incubated with previously denatured enzyme (90°C, 15 min). Full concentration-inhibition curves were determined with inhibitor concentrations ranging from 0.03 to 30 µM in the presence of 2% DMSO. Inhibition-type experiments were performed with 25, 50, 100, 150 and 200 µM ATP as substrate for NTPDase2 in the presence of inhibitor 20 (0, 0.25, 0.5, and 1 µM) and 25, 50, 100 and 150 µM ATP substrate for NTPDase3 and compound 42 (0.25, 0.5, and 1 µM). For all of the presented data, at least three independent experiments were performed, and IC50 values were calculated by GraphPad Prism 8 software.
(§2) Inhibition of human NTPDases was performed using the malachite green assay, which was established on a robotic system (Z’ factors > 0.70) ([Baykov et al., 1988]; [Fiene et al., 2015]). The malachite green assay enables the detection of the phosphate produced by the enzymatic hydrolysis of nucleotides. A fixed substrate concentration of 50 µM ATP for NTPDase1 and 100 µM for NTPDase2, -3, and -8 was employed. Test compounds were initially screened at a concentration of 2 μM. […] A total of 48 synthesized anthraquinone derivatives including 14 new compounds not previously described in the literature were evaluated for their inhibitory activity at human NTPDase1, -2, -3, and -8 (for results see Table 1).

human NTPDase2 = target: T2, human NTPDase2 (Homo sapiens, UniProt Q9Y5L3); assay: Malachite green assay, human NTPDase2; type: biochemical; conditions: 100 µM ATP, COS-7 membrane preparation; for IC50: read-out: IC50 ± SEM, NTPDase2; for inhibition at 2 µM: 2 μM compound, read-out: % inhibition at 2 μM concentration, NTPDase2
T2 construct: expressed in transfected cells; host or cells: COS-7 cells (membrane preparation)
T2 sequence (Q9Y5L3 1-495): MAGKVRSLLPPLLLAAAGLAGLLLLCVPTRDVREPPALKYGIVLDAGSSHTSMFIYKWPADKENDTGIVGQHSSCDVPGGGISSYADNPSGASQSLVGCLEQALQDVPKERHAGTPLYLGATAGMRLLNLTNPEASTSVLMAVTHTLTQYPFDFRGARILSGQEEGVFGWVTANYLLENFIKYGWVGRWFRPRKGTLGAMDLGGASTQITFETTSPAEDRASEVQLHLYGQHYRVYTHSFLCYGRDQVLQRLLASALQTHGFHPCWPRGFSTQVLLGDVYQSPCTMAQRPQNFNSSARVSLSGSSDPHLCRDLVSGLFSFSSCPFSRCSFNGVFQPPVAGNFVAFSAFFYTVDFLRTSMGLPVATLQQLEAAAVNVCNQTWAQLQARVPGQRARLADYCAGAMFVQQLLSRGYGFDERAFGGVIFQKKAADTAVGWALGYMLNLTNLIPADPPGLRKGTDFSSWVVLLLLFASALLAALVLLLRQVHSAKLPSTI
Protocol: as §1, §2

human NTPDase3 = target: T3, human NTPDase3 (Homo sapiens, UniProt O75355); assay: Malachite green assay, human NTPDase3; type: biochemical; conditions: for IC50 / inhibition at 2 µM: 100 µM ATP, COS-7 membrane preparation; for IC50: read-out: IC50 ± SEM, NTPDase3; for inhibition at 2 µM: 2 μM compound, read-out: % inhibition at 2 μM concentration, NTPDase3
T3 construct: expressed in transfected cells; host or cells: COS-7 cells (membrane preparation)
T3 sequence (O75355 1-529): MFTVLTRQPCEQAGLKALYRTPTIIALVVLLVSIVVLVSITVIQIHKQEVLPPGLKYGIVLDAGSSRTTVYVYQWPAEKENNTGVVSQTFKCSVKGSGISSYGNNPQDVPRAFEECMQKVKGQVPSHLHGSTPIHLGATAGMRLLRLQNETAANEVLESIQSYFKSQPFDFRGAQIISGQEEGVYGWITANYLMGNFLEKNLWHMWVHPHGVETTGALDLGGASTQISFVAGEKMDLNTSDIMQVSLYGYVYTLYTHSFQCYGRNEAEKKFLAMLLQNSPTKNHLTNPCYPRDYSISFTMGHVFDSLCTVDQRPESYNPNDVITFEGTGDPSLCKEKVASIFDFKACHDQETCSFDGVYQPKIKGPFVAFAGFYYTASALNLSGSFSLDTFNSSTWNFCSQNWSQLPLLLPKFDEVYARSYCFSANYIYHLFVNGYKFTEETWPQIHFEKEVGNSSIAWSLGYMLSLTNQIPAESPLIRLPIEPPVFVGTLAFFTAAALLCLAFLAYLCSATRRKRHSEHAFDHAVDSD
Protocol: as §1, §2

human NTPDase8 = target: T4, human NTPDase8 (Homo sapiens, UniProt Q5MY95); assay: Malachite green assay, human NTPDase8; type: biochemical; conditions: 2 μM compound; 100 µM ATP; COS-7 membrane preparation; read-out: % inhibition at 2 μM concentration, NTPDase8
T4 construct: expressed in transfected cells; host or cells: COS-7 cells (membrane preparation)
T4 sequence (Q5MY95 1-495): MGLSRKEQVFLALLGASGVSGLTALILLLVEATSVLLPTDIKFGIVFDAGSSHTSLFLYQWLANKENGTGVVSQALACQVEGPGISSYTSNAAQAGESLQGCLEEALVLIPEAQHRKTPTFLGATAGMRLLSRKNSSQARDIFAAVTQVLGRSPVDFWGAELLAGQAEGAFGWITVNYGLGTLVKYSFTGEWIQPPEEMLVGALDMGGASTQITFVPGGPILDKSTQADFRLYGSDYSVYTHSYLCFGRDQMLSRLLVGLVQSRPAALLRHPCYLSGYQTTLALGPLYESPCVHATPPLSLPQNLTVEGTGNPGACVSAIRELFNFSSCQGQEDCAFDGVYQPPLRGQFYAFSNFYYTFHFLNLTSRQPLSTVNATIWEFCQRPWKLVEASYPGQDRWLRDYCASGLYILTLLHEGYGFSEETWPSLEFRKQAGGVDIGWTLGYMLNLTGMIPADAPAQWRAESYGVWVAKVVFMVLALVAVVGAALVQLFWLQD
Protocol: as §1, §2

Row | Structure (SMILES) | melting point | inhibition at 2 µM (human NTPDase1) | IC50 (human NTPDase2) | IC50 (human NTPDase3) | inhibition at 2 µM (human NTPDase8) | inhibition at 2 µM (human NTPDase3) | inhibition at 2 µM (human NTPDase2) | inhibition type, NTPDase3 (human NTPDase3; Hanes-Woolf plot, 25-150 µM ATP, inhibitor 0.25, 0.5, 1 µM)
1 | Nc1c(S(=O)(=O)O)cc(Nc2ccc(Sc3ccccc3)c(Cl)c2)c2c1C(=O)c1ccccc1C2=O (as salt: sodium) [Compound 48, Sodium 1-amino-4-(3-chloro-4-phenylsulfanyl)-phenylamino-9,10-dioxo-9,10-dihydroanthracene-2-sulfonate] | > 300 °C | – | – | – | – | – | – | –
2 | Nc1c(S(=O)(=O)O)cc(Nc2cccc(Cc3ccccc3)c2)c2c1C(=O)c1ccccc1C2=O [Compound 39] | – | 36% | 3590 ± 850 nM | 13100 ± 1650 nM | 28% | – | – | –
3 | Nc1c(S(=O)(=O)O)cc(Nc2cccc(Oc3ccccc3)c2)c2c1C(=O)c1ccccc1C2=O [Compound 40] | – | 12% | 1110 ± 60 nM | – | 9% | 18% | – | –
4 | Nc1c(S(=O)(=O)O)cc(Nc2ccc(S(=O)(=O)O)c(Nc3nc(Cl)nc(Cl)n3)c2)c2c1C(=O)c1ccccc1C2=O [Compound 42, 1-amino-4-[3-(4,6-dichlorotriazin-2-ylamino)-4-sulfophenylamino]-9,10-dioxo-9,10-dihydroanthracene-2-sulfonate] | – | -2% | – | 390 ± 41 nM | -7% | – | 10% | mixed-type
5 | Nc1c(S(=O)(=O)O)cc(Nc2ccc(Cc3ccccc3)cc2)c2c1C(=O)c1ccccc1C2=O [Compound 43] | – | 7% | 1320 ± 50 nM | – | 3% | 3% | – | –
6 | Nc1c(S(=O)(=O)O)cc(Nc2ccc(Sc3ccccc3)cc2)c2c1C(=O)c1ccccc1C2=O [Compound 44] | – | 15% | 934 ± 136 nM | – | 6% | 7% | – | –
7 | Nc1c(S(=O)(=O)O)cc(Nc2ccc(Oc3ccc(Br)cc3)cc2)c2c1C(=O)c1ccccc1C2=O [Compound 46] | – | 33% | 1730 ± 290 nM | – | 10% | 21% | – | –
8 | Nc1c(S(=O)(=O)O)cc(Nc2ccc(Sc3ccccc3)c(Cl)c2)c2c1C(=O)c1ccccc1C2=O [Compound 48, Sodium 1-amino-4-(3-chloro-4-phenylsulfanyl)-phenylamino-9,10-dioxo-9,10-dihydroanthracene-2-sulfonate] | – | 29% | 551 ± 195 nM | – | 14% | 20% | – | –
9 | Cc1ccc(Sc2ccc(Nc3cc(S(=O)(=O)O)c(N)c4c3C(=O)c3ccccc3C4=O)cc2)c(C)c1 [Compound 49] | – | 46% | 1280 ± 340 nM | – | 27% | 36% | – | –
10 | Cc1ccc(C)c(Sc2ccc(Nc3cc(S(=O)(=O)O)c(N)c4c3C(=O)c3ccccc3C4=O)cc2)c1 [Compound 50] | – | 38% | 1130 ± 270 nM | – | 17% | 34% | – | –
11 | Cc1ccc(Sc2ccc(Nc3cc(S(=O)(=O)O)c(N)c4c3C(=O)c3ccccc3C4=O)cc2)cc1C [Compound 51] | – | 51% | 832 ± 53 nM | – | 27% | 44% | – | –
12 | Nc1c(Br)cc(Nc2cccc(C(=O)O)c2)c2c1C(=O)c1ccccc1C2=O [Compound 52] | – | -2% | – | – | 3% | 1% | -5% | –
13 | Cc1cc(Nc2cccc(F)c2)c2c(c1N)C(=O)c1ccccc1C2=O [Compound 54] | – | -4% | – | – | -2% | -2% | 7% | –
14 | COc1cccc(Nc2cc(C)c(N)c3c2C(=O)c2ccccc2C3=O)c1 [Compound 55] | – | -6% | – | – | -2% | 0% | 3% | –
15 | CCc1cccc(Nc2cc(C)c(N)c3c2C(=O)c2ccccc2C3=O)c1 [Compound 56] | – | -3% | – | – | -3% | -1% | 6% | –
16 | O=C(O)c1cc(Nc2cc(S(=O)(=O)O)cc3c2C(=O)c2ccccc2C3=O)ccc1O [Compound 58] | – | 1% | – | – | 5% | 32% | 5% | –

— article PMC7481482, “Development of Anthraquinone Derivatives as Ectonucleoside Triphosphate Diphosphohydrolase (NTPDase) Inhibitors With Selectivity for NTPDase2 and NTPDase3” (Frontiers in Pharmacology, 2020)
